Assay results from patent publication US20260193264A1, “BENZOYPARAZINE PYRAZINES AND THEIR USES” (FOGHORN THERAPEUTICS INC., priority 2022, published 2026).

How the values were obtained:
[1] = target: T1, HiBiT-BRM fusion protein in stable HeLa cell line (Homo sapiens, UniProt P51531); test: HiBiT-BRM cell-based degradation assay (Nano-Glo HiBiT Lytic Detection, 24 h); set-up: DC50: scale not given here; conditions: HeLa HiBiT-BRM cells; for DC50: read-out: BRM HiBit Degradation IC50; for BRM HiBit Degradation Maximum (%): top dose 30 μM
T1 construct: expressed in transfected cells
Outline: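 Luminescence from HiBiT/LgBiT complementation after lysis reports remaining HiBiT-BRM in stable HeLa cells exposed to compound for 24 h. Dosing used 3-fold serial dilutions, 10 points, 30 μM top final concentration. DMSO and a 2 μM BRM/BRG1 degrader standard defined 0% and 100% degradation.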

[2] = target: T2, HiBit-BRG1 fusion protein in stable HeLa cell line expressing HiBit-BRG1 and LgBit (Homo sapiens, UniProt P51532); test: HiBiT-BRG1 cell-based degradation assay (Nano-Glo HiBiT, 24 h); conditions: HeLa HiBit-BRG1/LgBit cells; for DC50: read-out: BRMG1 HiBit Degradation IC50; for Dmax: top dose 30 μM, read-out: BRG1 HiBit Degradation Maximum (%)
T2 construct: expressed in transfected cells
Outline: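 Stable HeLa line co-expressing HiBiT-BRG1 and LgBiT, compound-treated 24 h; luminescence read after Nano-Glo HiBiT lytic reagent. % degradation normalised between DMSO (high control) and 2 μM reference BRM/BRG1 degrader (low control).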

T2 sequence (P51532 whole entry, the tested form may be a part): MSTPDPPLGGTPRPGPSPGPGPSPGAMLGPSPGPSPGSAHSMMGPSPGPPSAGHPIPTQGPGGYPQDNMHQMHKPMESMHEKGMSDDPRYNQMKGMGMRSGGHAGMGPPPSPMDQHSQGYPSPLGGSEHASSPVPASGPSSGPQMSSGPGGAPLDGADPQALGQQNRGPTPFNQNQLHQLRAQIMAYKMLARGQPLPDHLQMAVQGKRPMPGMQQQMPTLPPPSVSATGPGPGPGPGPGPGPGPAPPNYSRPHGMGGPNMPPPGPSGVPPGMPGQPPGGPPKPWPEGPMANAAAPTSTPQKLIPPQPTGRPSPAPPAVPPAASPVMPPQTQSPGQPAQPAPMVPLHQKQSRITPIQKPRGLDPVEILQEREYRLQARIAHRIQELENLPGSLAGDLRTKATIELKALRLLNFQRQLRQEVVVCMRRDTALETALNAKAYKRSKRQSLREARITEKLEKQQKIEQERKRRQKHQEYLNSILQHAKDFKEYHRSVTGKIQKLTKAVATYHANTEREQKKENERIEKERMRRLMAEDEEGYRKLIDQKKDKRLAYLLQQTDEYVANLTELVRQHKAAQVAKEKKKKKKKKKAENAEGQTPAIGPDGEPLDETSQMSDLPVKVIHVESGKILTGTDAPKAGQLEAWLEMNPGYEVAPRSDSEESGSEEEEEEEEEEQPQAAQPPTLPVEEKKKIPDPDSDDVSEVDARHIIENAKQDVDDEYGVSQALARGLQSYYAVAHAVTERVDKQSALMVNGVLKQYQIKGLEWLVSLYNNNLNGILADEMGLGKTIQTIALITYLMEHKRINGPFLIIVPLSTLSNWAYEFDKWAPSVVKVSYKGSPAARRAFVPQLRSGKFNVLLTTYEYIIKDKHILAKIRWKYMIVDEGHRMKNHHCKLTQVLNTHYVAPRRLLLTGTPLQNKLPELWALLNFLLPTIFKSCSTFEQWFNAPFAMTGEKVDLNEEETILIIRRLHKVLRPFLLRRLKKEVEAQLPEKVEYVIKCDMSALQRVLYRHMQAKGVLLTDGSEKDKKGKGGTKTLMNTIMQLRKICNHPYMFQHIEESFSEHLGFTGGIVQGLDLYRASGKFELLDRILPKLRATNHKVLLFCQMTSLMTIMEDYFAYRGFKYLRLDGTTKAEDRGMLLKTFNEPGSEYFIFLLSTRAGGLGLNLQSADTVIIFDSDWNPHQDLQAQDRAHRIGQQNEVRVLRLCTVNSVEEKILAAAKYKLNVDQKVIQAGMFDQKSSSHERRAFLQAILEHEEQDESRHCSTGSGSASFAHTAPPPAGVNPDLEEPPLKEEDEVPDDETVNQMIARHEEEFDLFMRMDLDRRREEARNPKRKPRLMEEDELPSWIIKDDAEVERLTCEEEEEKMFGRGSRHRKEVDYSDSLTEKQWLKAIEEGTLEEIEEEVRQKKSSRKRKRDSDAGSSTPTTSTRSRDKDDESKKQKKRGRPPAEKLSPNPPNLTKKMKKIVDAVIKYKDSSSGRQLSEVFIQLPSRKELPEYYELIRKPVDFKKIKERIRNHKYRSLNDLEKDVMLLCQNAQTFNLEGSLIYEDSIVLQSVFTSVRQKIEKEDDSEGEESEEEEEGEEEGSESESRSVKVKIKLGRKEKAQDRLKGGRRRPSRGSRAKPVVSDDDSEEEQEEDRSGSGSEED
T1 sequence (P51531 whole entry, the tested form may be a part): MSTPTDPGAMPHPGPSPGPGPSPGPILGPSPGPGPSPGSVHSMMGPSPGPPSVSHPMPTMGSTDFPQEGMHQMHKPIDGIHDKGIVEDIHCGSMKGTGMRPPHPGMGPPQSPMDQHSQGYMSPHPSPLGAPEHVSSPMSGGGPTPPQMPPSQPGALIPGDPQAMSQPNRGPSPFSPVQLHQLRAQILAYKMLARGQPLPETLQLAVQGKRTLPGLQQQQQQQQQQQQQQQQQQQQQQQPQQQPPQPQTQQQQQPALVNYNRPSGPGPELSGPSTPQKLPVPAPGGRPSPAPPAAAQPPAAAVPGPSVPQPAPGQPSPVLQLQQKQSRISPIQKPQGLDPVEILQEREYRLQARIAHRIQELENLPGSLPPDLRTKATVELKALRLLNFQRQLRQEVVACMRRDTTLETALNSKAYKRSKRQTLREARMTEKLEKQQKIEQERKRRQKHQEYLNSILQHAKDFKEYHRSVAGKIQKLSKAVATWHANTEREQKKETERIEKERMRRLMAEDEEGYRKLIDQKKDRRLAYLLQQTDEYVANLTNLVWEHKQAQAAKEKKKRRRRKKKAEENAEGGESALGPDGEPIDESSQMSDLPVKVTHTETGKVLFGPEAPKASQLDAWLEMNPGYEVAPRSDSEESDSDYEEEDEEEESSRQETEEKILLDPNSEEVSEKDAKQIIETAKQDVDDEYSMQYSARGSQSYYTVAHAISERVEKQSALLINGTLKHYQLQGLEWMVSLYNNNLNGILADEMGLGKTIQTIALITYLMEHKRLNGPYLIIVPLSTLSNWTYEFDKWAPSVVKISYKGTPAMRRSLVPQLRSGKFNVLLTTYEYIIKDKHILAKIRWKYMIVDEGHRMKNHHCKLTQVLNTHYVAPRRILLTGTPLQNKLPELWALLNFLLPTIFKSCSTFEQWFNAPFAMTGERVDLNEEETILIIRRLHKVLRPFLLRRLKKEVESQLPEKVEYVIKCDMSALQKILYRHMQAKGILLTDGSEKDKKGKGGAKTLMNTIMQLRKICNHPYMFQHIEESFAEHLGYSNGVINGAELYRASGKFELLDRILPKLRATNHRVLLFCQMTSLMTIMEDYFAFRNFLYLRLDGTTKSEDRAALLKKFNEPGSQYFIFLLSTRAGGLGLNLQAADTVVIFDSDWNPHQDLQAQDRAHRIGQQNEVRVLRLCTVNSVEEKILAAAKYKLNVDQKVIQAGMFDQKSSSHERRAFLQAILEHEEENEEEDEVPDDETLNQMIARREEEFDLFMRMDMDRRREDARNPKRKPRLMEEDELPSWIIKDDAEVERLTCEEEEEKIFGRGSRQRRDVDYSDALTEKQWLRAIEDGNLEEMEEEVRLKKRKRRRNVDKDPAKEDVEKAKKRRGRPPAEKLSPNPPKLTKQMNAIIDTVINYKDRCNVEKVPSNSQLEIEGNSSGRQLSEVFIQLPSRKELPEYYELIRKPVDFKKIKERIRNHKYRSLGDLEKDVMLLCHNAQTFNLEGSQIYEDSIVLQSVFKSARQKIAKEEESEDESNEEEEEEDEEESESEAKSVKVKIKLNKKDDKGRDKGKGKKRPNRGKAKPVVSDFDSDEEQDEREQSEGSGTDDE

Row | DC50 [1] [nM] | DC50 [2] [nM] | Dmax [2] [%] | SMILES | BRM HiBit Degradation Maximum (%) [1]
1 | < 10 | < 10 | > 75 | Cc1ncsc1-c1ccc([C@H](C)NC(=O)[C@@H]2C[C@@H](O)CN2C(=O)[C@@H](c2cc(N3CC4(CCC(c5ccc6cc(-c7ccccc7O)nnc6c5)CC4)C3)no2)C(C)C)cc1 [Compound 87, (2S,4R)-4-hydroxy-1-((R)-2-(3-(7-(3-(2-hydroxyphenyl)cinnolin-7-yl)-2-azaspiro[3.5]nonan-2-yl)isoxazol-5-yl)-3-methylbutanoyl)-N-((S)-1-(4-(4-methylthiazol-5-yl)phenyl)ethyl)pyrrolidine-2-carboxamide] | A (“A” indicates maximum degradation ≥75%)
2 | < 10 |  | < 50 | Cc1cc(-c2cc([C@H](C(=O)N3C[C@H](O)C[C@H]3C(=O)N[C@@H](C)c3ccc(-c4scnc4C)cc3)C(C)C)on2)cnc1N1CCC(c2ccc3cc(-c4ccccc4O)nnc3c2)CC1 [Compound 88, (2S,4R)-4-hydroxy-1-((R)-2-(3-(6-(4-(3-(2-hydroxyphenyl)cinnolin-7-yl)piperidin-1-yl)-5-methylpyridin-3-yl)isoxazol-5-yl)-3-methylbutanoyl)-N-((S)-1-(4-(4-methylthiazol-5-yl)phenyl)ethyl)pyrrolidine-2-carboxamide] | A (“A” indicates maximum degradation ≥75%)
3 | < 10 |  | < 50 | CC(C)[C@@H](C(=O)N1C[C@H](O)C[C@H]1C(=O)N[C@@H](C)c1ccc(F)cc1)c1cc(N2CC3(CN(c4ccc5cc(-c6ccccc6O)nnc5c4)C3)C2)no1 [Compound 89, (2S,4R)-N-((S)-1-(4-fluorophenyl)ethyl)-4-hydroxy-1-((R)-2-(3-(6-(3-(2-hydroxyphenyl)cinnolin-7-yl)-2,6-diazaspiro[3.3]heptan-2-yl)isoxazol-5-yl)-3-methylbutanoyl)pyrrolidine-2-carboxamide] | A (“A” indicates maximum degradation ≥75%)
4 | < 10 | < 10 | > 75 | Cc1ncsc1-c1ccc([C@H](C)NC(=O)[C@@H]2C[C@@H](O)CN2C(=O)[C@@H](c2cc(N3CCC[C@H](c4ccc5cc(-c6ccccc6O)nnc5c4)C3)no2)C(C)C)cc1 [Compound 90, (2S,4R)-4-hydroxy-1-((R)-2-(3-((R)-3-(3-(2-hydroxyphenyl)cinnolin-7-yl)piperidin-1-yl)isoxazol-5-yl)-3-methylbutanoyl)-N-((S)-1-(4-(4-methylthiazol-5-yl)phenyl)ethyl)pyrrolidine-2-carboxamide] | A (“A” indicates maximum degradation ≥75%)
5 | < 10 | < 10 | > 75 | Cc1ncsc1-c1ccc([C@H](C)NC(=O)[C@@H]2C[C@@H](O)CN2C(=O)[C@@H](c2cc(N3CCC[C@@H](c4ccc5cc(-c6ccccc6O)nnc5c4)C3)no2)C(C)C)cc1 [Compound 91, (2S,4R)-4-hydroxy-1-((R)-2-(3-((S)-3-(3-(2-hydroxyphenyl)cinnolin-7-yl)piperidin-1-yl)isoxazol-5-yl)-3-methylbutanoyl)-N-((S)-1-(4-(4-methylthiazol-5-yl)phenyl)ethyl)pyrrolidine-2-carboxamide] | A (“A” indicates maximum degradation ≥75%)
6 | < 10 | > 10 | > 75 | Cc1ncsc1-c1ccc([C@H](C)NC(=O)[C@@H]2C[C@@H](O)CN2C(=O)[C@@H](c2cc(N3CCC4(CC[C@H](c5ccc6cc(-c7ccccc7O)nnc6c5)C4)CC3)no2)C(C)C)cc1 [Compound 92, (2S,4R)-4-hydroxy-1-((R)-2-(3-((S)-2-(3-(2-hydroxyphenyl)cinnolin-7-yl)-8-azaspiro[4.5]decan-8-yl)isoxazol-5-yl)-3-methylbutanoyl)-N-((S)-1-(4-(4-methylthiazol-5-yl)phenyl)ethyl)pyrrolidine-2-carboxamide] | A (“A” indicates maximum degradation ≥75%)
7 | < 10 |  | < 50 | Cc1ncsc1-c1ccc([C@H](C)NC(=O)[C@@H]2C[C@@H](O)CN2C(=O)[C@@H](c2cc(N3CCC4(CC[C@@H](c5ccc6cc(-c7ccccc7O)nnc6c5)C4)CC3)no2)C(C)C)cc1 [Compound 93, (2S,4R)-4-hydroxy-1-((R)-2-(3-((R)-2-(3-(2-hydroxyphenyl)cinnolin-7-yl)-8-azaspiro[4.5]decan-8-yl)isoxazol-5-yl)-3-methylbutanoyl)-N-((S)-1-(4-(4-methylthiazol-5-yl)phenyl)ethyl)pyrrolidine-2-carboxamide] | A (“A” indicates maximum degradation ≥75%)
8 | < 10 |  | < 50 | Cc1ncsc1-c1ccc([C@H](C)NC(=O)[C@@H]2C[C@@H](O)CN2C(=O)[C@@H](c2cc(N3CCC4(CC3)CC(c3ccc5cc(-c6cccc(F)c6O)nnc5c3)C4)no2)C(C)C)cc1 [Compound 94, (2S,4R)-1-((R)-2-(3-(2-(3-(3-fluoro-2-hydroxyphenyl)cinnolin-7-yl)-7-azaspiro[3.5]nonan-7-yl)isoxazol-5-yl)-3-methylbutanoyl)-4-hydroxy-N-((S)-1-(4-(4-methylthiazol-5-yl)phenyl)ethyl)pyrrolidine-2-carboxamide] | A (“A” indicates maximum degradation ≥75%)
9 | < 10 | < 10 | > 75 | Cc1ncsc1-c1ccc([C@H](C)NC(=O)[C@@H]2C[C@@H](O)CN2C(=O)[C@@H](c2cc(N3CC4(CCN(c5ccc6cc(-c7ccccc7O)nnc6c5)CC4)C3)no2)C(C)C)cc1 [Compound 95, (2S,4R)-4-hydroxy-1-((R)-2-(3-(7-(3-(2-hydroxyphenyl)cinnolin-7-yl)-2,7-diazaspiro[3.5]nonan-2-yl)isoxazol-5-yl)-3-methylbutanoyl)-N-((S)-1-(4-(4-methylthiazol-5-yl)phenyl)ethyl)pyrrolidine-2-carboxamide] | A (“A” indicates maximum degradation ≥75%)
10 | < 10 | > 10 | > 75 | Cc1ncsc1-c1ccc([C@H](C)NC(=O)[C@@H]2C[C@@H](O)CN2C(=O)[C@@H](c2cc(N3CCC4(CCC(c5ccc6cc(-c7ccccc7O)nnc6c5)CC4)CC3)no2)C(C)C)cc1 [Compound 96, (2S,4R)-4-hydroxy-1-((R)-2-(3-(9-(3-(2-hydroxyphenyl)cinnolin-7-yl)-3-azaspiro[5.5]undecan-3-yl)isoxazol-5-yl)-3-methylbutanoyl)-N-((S)-1-(4-(4-methylthiazol-5-yl)phenyl)ethyl)pyrrolidine-2-carboxamide] | A (“A” indicates maximum degradation ≥75%)
11 | < 10 | < 10 | > 75 | Cc1ncsc1-c1ccc([C@H](C)NC(=O)[C@@H]2C[C@@H](O)CN2C(=O)[C@@H](c2cc(-c3ccc4nnc(-c5ccccc5O)cc4c3)no2)C(C)C)cc1 [Compound 97, (2S,4R)-4-hydroxy-1-[(2R)-2-{3-[3-(2-hydroxyphenyl)cinnolin-6-yl]-1,2-oxazol-5-yl}-3-methylbutanoyl]-N-[(1S)-1-[4-(4-methyl-1,3-thiazol-5-yl)phenyl]ethyl]pyrrolidine-2-carboxamide] | A (“A” indicates maximum degradation ≥75%)
12 | < 10 | > 10 | > 75 | Cc1ncsc1-c1ccc([C@H](C)NC(=O)[C@@H]2C[C@@H](O)CN2C(=O)[C@@H](c2cc(N3CCC4(CCN(c5ccc6nnc(-c7ccccc7O)cc6c5)C4)C3)no2)C(C)C)cc1 (stereo partly drawn) [Compound 98, (2S,4R)-4-hydroxy-1-((2R)-2-(3-(7-(3-(2-hydroxyphenyl)cinnolin-6-yl)-2,7-diazaspiro[4.4]nonan-2-yl)isoxazol-5-yl)-3-methylbutanoyl)-N-((S)-1-(4-(4-methylthiazol-5-yl)phenyl)ethyl)pyrrolidine-2-carboxamide] | A (“A” indicates maximum degradation ≥75%)
13 | < 10 | < 10 | > 75 | Cc1ncsc1-c1ccc([C@H](C)NC(=O)[C@@H]2C[C@@H](O)CN2C(=O)[C@@H](c2cc(N3CC[C@@]4(CCN(c5ccc6cc(-c7ccccc7O)nnc6c5)C4)C3)no2)C(C)C)cc1 [Compound 99, (2S,4R)-4-hydroxy-1-((R)-2-(3-((R)-7-(3-(2-hydroxyphenyl)cinnolin-7-yl)-2,7-diazaspiro[4.4]nonan-2-yl)isoxazol-5-yl)-3-methylbutanoyl)-N-((S)-1-(4-(4-methylthiazol-5-yl)phenyl)ethyl)pyrrolidine-2-carboxamide] | A (“A” indicates maximum degradation ≥75%)
14 | > 10 |  | < 50 | Cc1ncsc1-c1ccc([C@H](C)NC(=O)[C@@H]2C[C@@H](O)CN2C(=O)[C@@H](c2cc(N3CC4(CCN4c4ccc5cc(-c6ccccc6O)nnc5c4)C3)no2)C(C)C)cc1 [Compound 100, (2S,4R)-4-hydroxy-1-((R)-2-(3-(1-(3-(2-hydroxyphenyl)cinnolin-7-yl)-1,6-diazaspiro[3.3]heptan-6-yl)isoxazol-5-yl)-3-methylbutanoyl)-N-((S)-1-(4-(4-methylthiazol-5-yl)phenyl)ethyl)pyrrolidine-2-carboxamide] | B (“B” indicates maximum degradation ≥50%)
